The source of these data is patent publication US20080207452A1, “Ionic liquids derived from herbicidal carboxylic acids and certain trialkylamines or heteroarylamines” (Dow AgroSciences LLC, priority 2007, published 2008).

What all share (assay type): in vivo
The subject of series [1] is Broadleaf Dock Rumex obtusifolia. In words: Post-emergence greenhouse herbicide evaluation, broadleaf dock. The conditions noted are these: 560 g ae/ha, 14 days after application, visual injury 0-100% vs untreated. The source says: (§1) Post-Emergence Application Methods for Herbicide Evaluations.
(§2) A peat based potting soil, Metro-mix 360, was used as the soil media for this test. Metro-mix is a growing medium consisting of 35 to 45% specially processed Coconut Coir Pith, 10 to 20% horticultural grade vermiculite, 15 to 25% processed Ash Bark, 20 to 30% choice Canadian Sphagnum Peat Moss and proprietary nutrients and other ingredients. Several seeds of each species were planted in 10 cm square pots and top watered twice daily. Plant material was propagated in the greenhouse at a constant temperature of 26 to 28° C. and 50 to 60% relative humidity. Natural light was supplemented with 1000-watt metal halide overhead lamps with an average illumination of 500 μE m^−2 s^−1 photosynthetic active radiation (PAR). Day length was 16 hours. Plant material was top-watered prior to treatment and sub-irrigated after treatment. Treatments were applied with a tracksprayer manufactured by Allen Machine Works. The sprayer utilized an 8003E spray nozzle, spray pressure of 262 kPa pressure and speed of 2.8 mph (4.5 km/h) to deliver 187 L/Ha. The nozzle height was 46 cm above the plant canopy. The growth stage of the various weed species ranged from 2 to 4 leaf. Treatments were replicated 3 times. Plants were returned to the greenhouse after treatment and sub-watered throughout the duration of the experiment. Plant material was fertilized twice weekly with Hoagland's fertilizer solution. Percent visual injury assessments were made on a scale of 0 to 100% as compared to the untreated control plants (where 0 is equal to no injury and 100 is equal to complete death of the plant).

A further series has as its system Kochia Kochia scoparia. Kind of series: Post-emergence greenhouse herbicide evaluation, kochia. The settings on record: 560 g ae/ha, 14 days after application, visual injury 0-100% vs untreated.
Description: as §1, §2

The subject of series [2] is grapes (Vitis labrusca L.). In words: Volatility evaluation: injury to grapes from vapor exposure to treated wheat. The settings on record: wheat sprayed at 11200 g ae/ha, 24 hour vapor exposure at 40° C., evaluated 7 days after exposure. The text has this:
Methods for Evaluating the Volatility of 2,4-D Standards and Ionic Liquids of 2,4-D.
Four pots of wheat (Triticum aestivum L.) grown in 4 inch square pots were sprayed at 11200 g ae/ha with each of the different forms of 2,4-D. Treatments were applied with a tracksprayer manufactured by Allen Machine Works. The sprayer utilized an 8002E spray nozzle, spray pressure of 262 kPa pressure and speed of 1.5 mph (2.4 km/h) to deliver 187 L/Ha. The nozzle height was 46 cm above the plant canopy. The growth stage of the wheat was 1 to 2 leaf. The wheat plants were allowed to thoroughly dry to ensure that none of the spray solution was present when they were moved into a clean pot flat. A known sensitive species, grapes (Vitis labrusca L.) were placed at the opposite end of the flat. All of the pots were covered with a humidome with small ½ inch (1.27 cm) diameter holes cut into the end where the wheat was placed and a small box fan powered with a battery in the other end to pull air across the treated wheat plants and over the top of grapes. Plants were placed into a growth chamber with the temperature set at 40° C. with a 14 hour day and a 10 hour night cycle. A 24 hour exposure period was used after which the sensitive plants were then removed and placed in the greenhouse and evaluated for injury from vapor exposure to the treatments.

Series [3] deals with Barnyardgrass Echinochloa crus-galli. In words: Post-emergence greenhouse herbicide evaluation, barnyardgrass. The settings on record: 240 g ae/ha, 14 days after application, visual injury 0-100% vs untreated.
Description: as §1, §2

Series [4] deals with Large Crabgrass Digitaria Sanguinalis. In words: Post-emergence greenhouse herbicide evaluation, large crabgrass. The conditions noted are these: 240 g ae/ha, 14 days after application, visual injury 0-100% vs untreated.
Description: as §1, §2

As to `CNC.O=C(O)COc1ccc(Cl)cc1Cl` [2,4-D dimethylamine (DMA), 2,4-D dimethylamine, reference compound], the “% Control Broadleaf Dock Rumex obtusifolia” value in series [1] turned out to be 40%. Moreover, the “% Control Kochia Kochia scoparia” value with Kochia Kochia scoparia worked out at 76%. Moreover, in series [2], the “% Injury to grapes from vapor exposure” value is given as 78%.
As for `CCCCCCCCN(C)C.C[C@@H](Oc1ccc(Oc2ccc(C#N)cc2F)cc1)C(=O)O` [Compound 4i], the “% Control Barnyardgrass Echinochloa crus-galli” value in series [3] is on record as 100%. In addition, in series [4], the “% Control Large Crabgrass Digitaria Sanguinalis” value came out at 78%.
The like results for `CN(C)Cc1ccccc1.C[C@@H](Oc1ccc(Oc2ccc(C#N)cc2F)cc1)C(=O)O` [Compound 4k] were, in that order, 100% and 85%.
`CCCCCCCCN(C)C.O=C(O)COc1ccc(Cl)cc1Cl` [Compound 3c]: the “% Injury to grapes from vapor exposure” value in series [2] amounted to 0%.
Consider `CCCCOCCOC(=O)COc1ccc(Cl)cc1Cl` [2,4-D butoxyethylester (BEE), 2,4-D butoxyethylester, reference compound], for which the “% Control Broadleaf Dock Rumex obtusifolia” value in series [1] is 96%. Moreover, in the series with Kochia Kochia scoparia, the “% Control Kochia Kochia scoparia” value is 95%. In series [2], the “% Injury to grapes from vapor exposure” value was 100%.
Turning to `CCCCCCN(C)C.O=C(O)COc1nc(Cl)c(Cl)cc1Cl` [Compound 4b], the “% Control Broadleaf Dock Rumex obtusifolia” value in series [1] was 49%. Further, the “% Control Kochia Kochia scoparia” value in the series on Kochia Kochia scoparia is listed as 96%.
With `CCCCOC(=O)[C@H](C)Oc1ccc(Oc2ccc(C#N)cc2F)cc1` [cyhalofop Bu-ester, reference compound], the “% Control Barnyardgrass Echinochloa crus-galli” value in series [3] is on record as 100%. Further, in series [4], the “% Control Large Crabgrass Digitaria Sanguinalis” value is recorded as 92%.
For the compound `CCCCCCCCn1ccnc1.O=C(O)COc1nc(Cl)c(Cl)cc1Cl` [Compound 2c], the “% Control Broadleaf Dock Rumex obtusifolia” value in series [1] stood at 52%. Further, the “% Control Kochia Kochia scoparia” value in the series with Kochia Kochia scoparia is 92%.
The like results for `CCCCCCCCn1ccnc1.O=C(O)COc1ccc(Cl)cc1Cl` [Compound 1c] were, in that order, 82% and 97%.
Turning to `CCCCCCCCCCCCCCCCN(C)C.O=C(O)COc1ccc(Cl)cc1Cl` [Compound 3g], the “% Injury to grapes from vapor exposure” value in series [2] stood at 0%.
`CCCCOCCOC(=O)COc1nc(Cl)c(Cl)cc1Cl` [Triclopyr butoxyethylester (BEE), Triclopyr butoxyethylester, reference compound]: the “% Control Broadleaf Dock Rumex obtusifolia” value in series [1] is reported as 79%. In addition, in the series with Kochia Kochia scoparia, the “% Control Kochia Kochia scoparia” value was determined as 95%.
For `CCCCCCN(C)C.O=C(O)COc1ccc(Cl)cc1Cl` [Compound 3b] the same measures were 73% and 97%.
With `CCN(CC)CC.O=C(O)COc1nc(Cl)c(Cl)cc1Cl` [Triclopyr triethylamine (TEA), Triclopyr triethylamine, reference compound], in series [1], the “% Control Broadleaf Dock Rumex obtusifolia” value was 40%. Further, the “% Control Kochia Kochia scoparia” value in the series with Kochia Kochia scoparia is 93%.
On to `CC(Oc1ccc(Oc2ccc(C#N)cc2F)cc1)C(=O)O.CCCCCCCCCCCCCCN(C)C` (stereo not shown) [Compound 4j], for which the “% Control Barnyardgrass Echinochloa crus-galli” value in series [3] is on record as 100%. In addition, the “% Control Large Crabgrass Digitaria Sanguinalis” value in series [4] is 82%.
